Experimental data as given in article PMC2823940 (Bioorganic chemistry, 2009).
Entries after “also recorded” stand apart in the source; their conditions may differ. Each block holds one molecule with its values, some of them ahead of it.

Key:
HpAgD [1] = molecular target: T1, HpAgD (Helicobacter pylori, UniProt O24890); experiment: Site of inactivator modification; conditions: 5 eq. inactivator, 30 min, tryptic digest
[2] = Stability in aqueous buffer; assay type: physicochemical; conditions: not shown
HpAgD [3] = molecular target: T1, HpAgD; experiment: Determination of IC50 values against HpAgD; assay type: biochemical; conditions: for inhibition of HpAgD: concentrations as high as 500 μM
HpAgD [4] = molecular target: T1, HpAgD; experiment: Inactivation kinetics of HpAgD; assay type: biochemical
PAD4 = PAD4 (Homo sapiens, UniProt Q9UM07); experiment: PAD4 inhibition; assay type: biochemical; conditions: for inhibition of PAD4: concentrations as high as 1 mM
HpAgD [5] = molecular target: T1, HpAgD; experiment: Irreversibility of inactivation; assay type: biochemical; conditions: 1.0 mM inhibitor, 1 h at 37 °C, dialyzed 20 h
HpAgD [6] = molecular target: T1, HpAgD; experiment: Substrate protection experiments; assay type: biochemical; conditions: agmatine 0.5 vs 1.0 mM; ABFA 500 μM or ABCA 175 μM
D198A HpAgD = assay type: biochemical, Helicobacter pylori
Wild Type HpAgD = molecular target: T2, Wild Type HpAgD (Helicobacter pylori, UniProt O24890); experiment: HpAgD activity assay; conditions: for ability to serve as HpAgD substrate: known PAD substrates
T2 sequence (O24890 1-330): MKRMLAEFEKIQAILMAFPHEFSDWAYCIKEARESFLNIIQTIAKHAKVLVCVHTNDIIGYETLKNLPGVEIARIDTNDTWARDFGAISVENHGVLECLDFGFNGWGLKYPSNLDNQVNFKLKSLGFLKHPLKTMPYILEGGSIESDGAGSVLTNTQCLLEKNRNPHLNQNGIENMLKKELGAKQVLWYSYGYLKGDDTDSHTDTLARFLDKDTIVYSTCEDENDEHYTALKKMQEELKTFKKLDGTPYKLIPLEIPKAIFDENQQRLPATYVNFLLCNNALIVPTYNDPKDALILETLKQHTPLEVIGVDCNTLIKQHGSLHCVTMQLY

HpAgD [7] = molecular target: T1, HpAgD; experiment: Metal inhibition of HpAgD; assay type: biochemical; conditions: 15 min pre-incubation with metal ion, 5.0 mM agmatine
N=C(N)NCCCCN = experiment: purified protein, by the assay type; conditions: other: steady state, D198A HpAgD; pH 8.0; 37.0 °C
[8] = molecular target: Helicobacter pylori agmatine deiminase (HpAgD), untagged wild type (Helicobacter pylori) (UniProt O24890); experiment: SEC
[9] = substrate: N=C(N)NCCCCN; experiment: purified protein, by the assay type; conditions: other: steady state, Wild Type HpAgD, pH 8.0, 37 °C
[10] = read-out: IC50 HpAgD, 15 min pre-incubation, 0.5 mM Agmatine

Sequence of PAD4 (Q9UM07 whole entry): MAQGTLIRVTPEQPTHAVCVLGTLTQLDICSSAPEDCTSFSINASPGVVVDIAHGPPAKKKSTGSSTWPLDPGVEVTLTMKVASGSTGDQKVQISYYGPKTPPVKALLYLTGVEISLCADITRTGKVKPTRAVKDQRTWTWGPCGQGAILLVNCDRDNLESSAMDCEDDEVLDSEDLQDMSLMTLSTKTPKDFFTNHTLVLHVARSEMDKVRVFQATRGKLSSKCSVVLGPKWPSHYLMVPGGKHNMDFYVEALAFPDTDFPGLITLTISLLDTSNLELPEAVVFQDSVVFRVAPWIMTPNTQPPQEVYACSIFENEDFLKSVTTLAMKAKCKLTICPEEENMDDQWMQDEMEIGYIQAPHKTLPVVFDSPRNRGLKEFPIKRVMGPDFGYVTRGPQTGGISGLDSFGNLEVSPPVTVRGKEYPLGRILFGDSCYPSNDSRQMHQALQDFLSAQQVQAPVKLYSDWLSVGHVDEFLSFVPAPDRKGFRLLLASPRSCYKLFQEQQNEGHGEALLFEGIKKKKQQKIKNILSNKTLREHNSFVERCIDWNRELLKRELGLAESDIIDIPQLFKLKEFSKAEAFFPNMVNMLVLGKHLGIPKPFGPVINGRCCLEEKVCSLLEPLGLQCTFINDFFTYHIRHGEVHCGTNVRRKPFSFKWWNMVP

Molecule: N=C(CCl)NCCCCN [ABCA, N-(4-aminobutyl)-2-chloro-ethanimidamide]
site of modification (HpAgD [1]): modifying Cys324
stability in aqueous buffer [2]: excellent stability
IC50 (HpAgD [3]): 0.87 ± 0.03 µM
Ki (HpAgD [4]): 1200 ± 234 µM
kinact/KI (HpAgD [4]): 208 M⁻¹ s⁻¹
IC50 (PAD4): > 1000 µM
inhibition of PAD4 (PAD4): essentially no inhibition was observed
residual activity after dialysis (irreversibility) (HpAgD [5]): enzyme activity was not recovered; also recorded: irreversibly inhibit HpAgD
substrate protection against inactivation (HpAgD [6]): substrate can protect against enzyme inactivation

Molecule: N=C(CF)NCCCCN [ABFA, N-(4-aminobutyl)-2-fluoro-ethanimidamide]
site of modification (HpAgD [1]): modifying Cys324
stability in aqueous buffer [2]: excellent stability
IC50 (HpAgD [3]): 6.8 ± 0.26 µM
Ki (HpAgD [4]): 530 ± 150 µM
kinact/KI (HpAgD [4]): 66.7 M⁻¹ s⁻¹
IC50 (PAD4): > 1000 µM
inhibition of PAD4 (PAD4): essentially no inhibition was observed
residual activity after dialysis (irreversibility) (HpAgD [5]): enzyme activity was not recovered; also recorded: irreversibly inhibit HpAgD
substrate protection against inactivation (HpAgD [6]): substrate can protect against enzyme inactivation

Molecule: NCCCCN=C(N)N [Agmatine]
decrease in kcat, D198A vs wild type (D198A HpAgD): 17 fold
increase in Km, D198A vs wild type (D198A HpAgD): 5 fold
rate (kcat/Km) relative to all other substrates tested (Wild Type HpAgD; Wild Type HpAgD): > 10^4 fold
kcat (Wild Type HpAgD; steady state, Wild Type HpAgD, pH 8.0, 37 °C): ~ 5 min^−1

Molecule: NC(=O)[C@H](CCCN=C(N)N)NC(=O)c1ccccc1 [BAA, N-α-Benzoyl-L-arginine amide]
ability to serve as HpAgD substrate (Wild Type HpAgD): none of these compounds served as a substrate

Molecule: CCOC(=O)[C@H](CCCN=C(N)N)NC(=O)c1ccccc1 [BAEE, N-α-Benzoyl-L-arginine ethyl ester]
ability to serve as HpAgD substrate (Wild Type HpAgD): none of these compounds served as a substrate

Molecule: COC(=O)[C@H](CCCNC(=N)N)NC(=O)c1ccccc1 [BAME, N-α-Benzoyl-L-arginine methyl ester]
ability to serve as HpAgD substrate (Wild Type HpAgD): none of these compounds served as a substrate

Molecule: NC(=O)[C@H](CCCN=C(N)CCl)NC(=O)c1ccccc1 [Cl-amidine]
inhibition of HpAgD (HpAgD [3]): did not afford HpAgD inhibition
IC50 (HpAgD [3]; [10]): > 500 µM

Molecule: [Co+2] [Co^2+]
IC50 (HpAgD [7]): 13 ± 5.5 µM

Molecule: NC(=O)[C@H](CCCN=C(N)CF)NC(=O)c1ccccc1 [F-amidine]
inhibition of HpAgD (HpAgD [3]): did not afford HpAgD inhibition
IC50 (HpAgD [3]; [10]): > 500 µM

Molecule: [Ni+2] [Ni^2+]
IC50 (HpAgD [7]): 100 ± 3.9 µM

Molecule: [Zn+2] [Zn^2+]
IC50 (HpAgD [7]): 30 ± 3 µM

Molecule: Ac-SGRGK-COO^− (Ac-SGRGK-OH; UniProt P62805 2-6, looked up, fragment) [Ac-H4-5]
ability to serve as HpAgD substrate (Wild Type HpAgD): none of these compounds served as a substrate

Molecule: D198A HpAgD (Helicobacter pylori 26695; D198A)
Km (N=C(N)NCCCCN): 170 ± 79.8 µM
kcat (N=C(N)NCCCCN): 0.00467 s⁻¹
kcat/Km (N=C(N)NCCCCN): 28.3 M⁻¹ s⁻¹

stoichiometry N [8]: 2
Molecule: Helicobacter pylori agmatine deiminase (HpAgD), untagged wild type (from UniProt O24890 1-330) (enzyme)

B1: Wild Type HpAgD (Helicobacter pylori 26695) (protein)
chain: MKRMLAEFEKIQAILMAFPHEFSDWAYCIKEARESFLNIIQTIAKHAKVLVCVHTNDIIGYETLKNLPGVEIARIDTNDTWARDFGAISVENHGVLECLDFGFNGWGLKYPSNLDNQVNFKLKSLGFLKHPLKTMPYILEGGSIESDGAGSVLTNTQCLLEKNRNPHLNQNGIENMLKKELGAKQVLWYSYGYLKGDDTDSHTDTLARFLDKDTIVYSTCEDENDEHYTALKKMQEELKTFKKLDGTPYKLIPLEIPKAIFDENQQRLPATYVNFLLCNNALIVPTYNDPKDALILETLKQHTPLEVIGVDCNTLIKQHGSLHCVTMQLY
Km [9]: 33 ± 8.8 µM
kcat [9]: 0.0817 s⁻¹
kcat/Km [9]: 2450 M⁻¹ s⁻¹
